Values of other authors as cited in patent publication US6270780A, “Cosmetic compositions containing resveratrol” (Chesebrough-Pond's USA Co., division of Conopco, priority 1998, dated 2001).

Tested on: human promyelocytic leukemia cells
Details: Jang et al., Science 275: 218-220, 1997; cited from earlier work

In the case of `Oc1ccc(/C=C/c2cc(O)cc(O)c2)cc1` [Resveratrol, 3,4'5-stilbenetriol], the “differentiation of human promyelocytic leukemia cells” value is given as “induce differentiation of human promyelocytic leukemia cells”.
